Source: patent publication US20110294766A1, “16 Alpha, 17 Alpha-Acetal Glucocorticosteroidal Derivatives and their Use” (AstraZeneca AB, priority 2008, published 2011)

Target: T1, recombinant human GR (Homo sapiens, UniProt P04150)
T1 construct: purchased Panvera/Invitrogen P2812 (kit P2893)
T1 sequence (P04150 1-777): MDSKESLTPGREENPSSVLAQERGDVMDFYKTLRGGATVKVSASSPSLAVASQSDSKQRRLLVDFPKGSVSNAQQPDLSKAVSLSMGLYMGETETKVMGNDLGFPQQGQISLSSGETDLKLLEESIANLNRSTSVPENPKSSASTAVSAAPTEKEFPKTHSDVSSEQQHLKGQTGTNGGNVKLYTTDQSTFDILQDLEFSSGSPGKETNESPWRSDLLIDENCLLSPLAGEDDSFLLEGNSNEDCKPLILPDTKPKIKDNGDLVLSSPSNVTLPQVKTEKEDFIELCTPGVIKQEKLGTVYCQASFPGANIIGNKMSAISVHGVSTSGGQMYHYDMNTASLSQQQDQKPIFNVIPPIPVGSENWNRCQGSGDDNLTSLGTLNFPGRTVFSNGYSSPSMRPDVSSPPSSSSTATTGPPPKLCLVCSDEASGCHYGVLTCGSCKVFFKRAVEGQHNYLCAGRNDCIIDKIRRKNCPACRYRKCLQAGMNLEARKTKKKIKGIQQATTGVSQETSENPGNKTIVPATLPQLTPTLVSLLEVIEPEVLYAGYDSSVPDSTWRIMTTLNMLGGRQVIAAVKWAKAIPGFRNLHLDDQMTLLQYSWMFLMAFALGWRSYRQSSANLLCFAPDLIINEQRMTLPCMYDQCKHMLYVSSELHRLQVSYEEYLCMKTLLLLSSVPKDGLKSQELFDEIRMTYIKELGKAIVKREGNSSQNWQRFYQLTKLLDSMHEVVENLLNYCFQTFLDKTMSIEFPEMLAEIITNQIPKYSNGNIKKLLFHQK
Assay: Human Glucocorticoid Receptor (GR) Assay (fluorescence polarization, Panvera/Invitrogen kit)
Conditions: GS Red tracer, 2 hours at room temperature, 100% control 10 μM Dexamethasone, read-out: Inhibition of GR binding, IC50
Protocol: Human Glucocorticoid Receptor (GR) Assay The assay is based on a commercial kit from Panvera/Invitrogen (Part number P2893). The assay technology is fluorescence polarization. The kit utilises recombinant human GR (Panvera, Part number P2812), a Fluoromone™ labelled tracer (GS Red, Panvera, Part number P2894) and a Stabilizing Peptide 10× (Panvera, Part number P2815). The GR and Stabilizing Peptide reagents are stored at −70° C. while the GS Red is stored at −20° C. Also included in the kit are 1M DTT (Panvera, Part number P2325, stored at −20° C.) and GR Screening buffer 10× (Panvera, Part number P2814, stored at −70° C. initially but once thawed stored at room temperature). Avoid repeated freeze/thaws for all reagents. The GR Screening buffer 10× comprises 100 mM potassium phosphate, 200 mM sodium molybdate, 1 mM EDTA and 20% DMSO. Test compounds (1 μL) and controls (1 μL) in 100% DMSO were added to black polystyrene 384-well plates (Greiner low volume black flat-bottom, part number 784076). 0% control was 100% DMSO and 100% control was 10 μM Dexamethasone. Background solution (8 μL; assay buffer 10×, Stabilizing Peptide, DTT and ice cold MQ water) was added to the background wells. GS Red solution (7 μL; assay buffer 10×, Stabilizing Peptide, DTT, GS Red and ice cold water) was added to all wells except background wells. GR solution (7 μL; assay buffer 10×, Stabilizing Peptide, DTT, GR and ice cold water) was added to all wells. The plate was sealed and incubated in a dark at room temperature for 2 hours. The plate was read in an Analyst plate reader (LJL Biosystems/Molecular Devices Corporation) or other similar plate reader capable of recording fluorescence polarization (excitation wavelength 530 nm, emission wavelength 590 nm and a dichroic mirror at 561 nm).

Row | SMILES | IC50
1 | C[C@]12C=CC(=O)C=C1[C@@H](F)C[C@H]1[C@@H]3C[C@H]4OC(c5ccc6ncccc6c5)O[C@@]4(C(=O)SCC#N)[C@@]3(C)C[C@H](O)[C@@]12F (stereo partly drawn) [Example 16, S-(Cyanomethyl)(4aS,4bR,5S,6aS,6bS,9aR,10aS,10bS,12S)-4b,12-difluoro-5-hydroxy-4a,6a-dimethyl-2-oxo-8-quinolin-6-yl-2,4a,4b,5,6,6a,9a,10,10a,10b,11,12-dodecahydro-6bH-naphtho[2′,1′:4,5]indeno[1,2-d][1,3]dioxole-6b-carbothioate] | 1.5 nM
2 | Cc1ccc(C2O[C@@H]3C[C@H]4[C@@H]5C[C@H](F)C6=CC(=O)C=C[C@]6(C)[C@@]5(F)[C@@H](O)C[C@]4(C)[C@]3(C(=O)SCF)O2)cc1 (stereo partly drawn) [Example 17, S-(Fluoromethyl)(4aS,4bR,5S,6aS,6bS,9aR,10aS,10bS,12S)-4b,12-difluoro-5-hydroxy-4a,6a-dimethyl-8-(4-methylphenyl)-2-oxo-2,4a,4b,5,6,6a,9a,10,10a,10b,11,12-dodecahydro-6bH-naphtho[2′,1′:4,5]indeno[1,2-d][1,3]dioxole-6b-carbothioate] | 1.8 nM
3 | C[C@]12C=CC(=O)C=C1[C@@H](F)C[C@H]1[C@@H]3C[C@H]4OC(c5ccc(C(F)(F)F)cc5)O[C@@]4(C(=O)SCF)[C@@]3(C)C[C@H](O)[C@@]12F (stereo partly drawn) [Example 18, S-(Fluoromethyl)(4aS,4bR,5S,6aS,6bS,9aR,10aS,10bS,12S)-4b,12-difluoro-5-hydroxy-4a,6a-dimethyl-2-oxo-8-[4-(trifluoromethyl)phenyl]-2,4a,4b,5,6,6a,9a,10,10a,10b,11,12-dodecahydro-6bH-naphtho[2′,1′:4,5]indeno[1,2-d][1,3]dioxole-6b-carbothioate] | 3.7 nM
4 | C[C@]12C=CC(=O)C=C1[C@@H](F)C[C@H]1[C@@H]3C[C@H]4OC(c5ccc(OC(F)(F)F)cc5)O[C@@]4(C(=O)SCC#N)[C@@]3(C)C[C@H](O)[C@@]12F (stereo partly drawn) [Example 19, S-(Cyanomethyl)(4aS,4bR,5S,6aS,6bS,9aR,10aS,10bS,12S)-4b,12-difluoro-5-hydroxy-4a,6a-dimethyl-2-oxo-8-[4-(trifluoromethoxy)phenyl]-2,4a,4b,5,6,6a,9a,10,10a,10b,11,12-dodecahydro-6bH-naphtho[2′,1′:4,5]indeno[1,2-d][1,3]dioxole-6b-carbothioate] | 4.8 nM
5 | C[C@]12C=CC(=O)C=C1[C@@H](F)C[C@H]1[C@@H]3C[C@H]4OC(c5ccc(C(F)(F)F)cc5)O[C@@]4(C(=O)SCC#N)[C@@]3(C)C[C@H](O)[C@@]12F (stereo partly drawn) [Example 20, S-(Cyanomethyl)(4aS,4bR,5S,6aS,6bS,9aR,10aS,10bS,12S)-4b,12-difluoro-5-hydroxy-4a,6a-dimethyl-2-oxo-8-[4-(trifluoromethyl)phenyl]-2,4a,4b,5,6,6a,9a,10,10a,10b,11,12-dodecahydro-6bH-naphtho[2′,1′:4,5]indeno[1,2-d][1,3]dioxole-6b-carbothioate] | 2.4 nM
6 | C[C@]12C=CC(=O)C=C1[C@@H](F)C[C@H]1[C@@H]3C[C@H]4OC(c5ccccc5F)O[C@@]4(C(=O)SCF)[C@@]3(C)C[C@H](O)[C@@]12F (stereo partly drawn) [Example 21, S-(Fluoromethyl)(4aS,4bR,5S,6aS,6bS,9aR,10aS,10bS,12S)-4b,12-difluoro-8-(2-fluorophenyl)-5-hydroxy-4a,6a-dimethyl-2-oxo-2,4a,4b,5,6,6a,9a,10,10a,10b,11,12-dodecahydro-6bH-naphtho[2′,1′:4,5]indeno[1,2-d][1,3]dioxole-6b-carbothioate] | 0.57 nM
7 | Cc1ccccc1C1O[C@@H]2C[C@H]3[C@@H]4C[C@H](F)C5=CC(=O)C=C[C@]5(C)[C@@]4(F)[C@@H](O)C[C@]3(C)[C@]2(C(=O)SCF)O1 (stereo partly drawn) [Example 22, S-(Fluoromethyl)(4aS,4bR,5S,6aS,6bS,9aR,10aS,10bS,12S)-4b,12-difluoro-5-hydroxy-4a,6a-dimethyl-8-(2-methylphenyl)-2-oxo-2,4a,4b,5,6,6a,9a,10,10a,10b,11,12-dodecahydro-6bH-naphtho[2′,1′:4,5]indeno[1,2-d][1,3]dioxole-6b-carbothioate] | 0.85 nM
8 | Cc1ccc(C2O[C@@H]3C[C@H]4[C@@H]5C[C@H](F)C6=CC(=O)C=C[C@]6(C)[C@@]5(F)[C@@H](O)C[C@]4(C)[C@]3(C(=O)SCC#N)O2)cc1 (stereo partly drawn) [Example 24, S-(Cyanomethyl)(4aS,4bR,5S,6aS,6bS,9aR,10aS,10bS,12S)-4b,12-difluoro-5-hydroxy-4a,6a-dimethyl-8-(4-methylphenyl)-2-oxo-2,4a,4b,5,6,6a,9a,10,10a,10b,11,12-dodecahydro-6bH-naphtho[2′,1′:4,5]indeno[1,2-d][1,3]dioxole-6b-carbothioate] | 1.2 nM

Results, then the molecule that gave them:

Row | IC50 | SMILES
9 | 0.99 nM | C[C@]12C=CC(=O)C=C1[C@@H](F)C[C@H]1[C@@H]3C[C@H]4OC(c5cccc(F)c5)O[C@@]4(C(=O)SCC#N)[C@@]3(C)C[C@H](O)[C@@]12F (stereo partly drawn) [Example 23, S-(Cyanomethyl)(4aS,4bR,5S,6aS,6bS,9aR,10aS,10bS,12S)-4b,12-difluoro-8-(3-fluorophenyl)-5-hydroxy-4a,6a-dimethyl-2-oxo-2,4a,4b,5,6,6a,9a,10,10a,10b,11,12-dodecahydro-6bH-naphtho[2′,1′:4,5]indeno[1,2-d][1,3]dioxole-6b-carbothioate]
10 | 0.7 nM | C[C@]12C=CC(=O)C=C1[C@@H](F)C[C@H]1[C@@H]3C[C@H]4OC(c5cccc(C#N)c5)O[C@@]4(C(=O)SCC#N)[C@@]3(C)C[C@H](O)[C@@]12F (stereo partly drawn) [Example 25, S-(Cyanomethyl)(4aS,4bR,5S,6aS,6bS,9aR,10aS,10bS,12S)-8-(3-cyanophenyl)-4b,12-difluoro-5-hydroxy-4a,6a-dimethyl-2-oxo-2,4a,4b,5,6,6a,9a,10,10a,10b,11,12-dodecahydro-6bH-naphtho[2′,1′:4,5]indeno[1,2-d][1,3]dioxole-6b-carbothioate]
11 | 1.1 nM | C[C@]12C=CC(=O)C=C1[C@@H](F)C[C@H]1[C@@H]3C[C@H]4OC(c5ccc(F)cc5)O[C@@]4(C(=O)SCC#N)[C@@]3(C)C[C@H](O)[C@@]12F (stereo partly drawn) [Example 26, S-(Cyanomethyl)(4aS,4bR,5S,6aS,6bS,9aR,10aS,10bS,12S)-4b,12-difluoro-8-(4-fluorophenyl)-5-hydroxy-4a,6a-dimethyl-2-oxo-2,4a,4b,5,6,6a,9a,10,10a,10b,11,12-dodecahydro-6bH-naphtho[2′,1′:4,5]indeno[1,2-d][1,3]dioxole-6b-carbothioate]
12 | 1.1 nM | C[C@]12C=CC(=O)C=C1[C@@H](F)C[C@H]1[C@@H]3C[C@H]4OC(c5ccccc5F)O[C@@]4(C(=O)SCC#N)[C@@]3(C)C[C@H](O)[C@@]12F (stereo partly drawn) [Example 27, S-(Cyanomethyl)(4aS,4bR,5S,6aS,6bS,9aR,10aS,10bS,12S)-4b,12-difluoro-8-(2-fluorophenyl)-5-hydroxy-4a,6a-dimethyl-2-oxo-2,4a,4b,5,6,6a,9a,10,10a,10b,11,12-dodecahydro-6bH-naphtho[2′,1′:4,5]indeno[1,2-d][1,3]dioxole-6b-carbothioate]
13 | 1.3 nM | C[C@]12C=CC(=O)C=C1[C@@H](F)C[C@H]1[C@@H]3C[C@H]4OC(c5ccc(Cl)cc5)O[C@@]4(C(=O)SCC#N)[C@@]3(C)C[C@H](O)[C@@]12F (stereo partly drawn) [Example 28, S-(Cyanomethyl)(4aS,4bR,5S,6aS,6bS,9aR,10aS,10bS,12S)-8-(4-chlorophenyl)-4b,12-difluoro-5-hydroxy-4a,6a-dimethyl-2-oxo-2,4a,4b,5,6,6a,9a,10,10a,10b,11,12-dodecahydro-6bH-naphtho[2′,1′,4,5]indeno[1,2-d][1,3]dioxole-6b-carbothioate]
